Assay results taken from US12084459B2, “2-(4-{1-[6-(4-isopropyl-phenyl)-imidazo[2,1-b][1,3,4]thiadiazol-2-yl]-piperidin-4-ylmethyl}-piperazin-1-yl)-ethanol and use thereof” (Urifer Ltd., priority 2020, dated 2024).

Experiments:
[1] = tested on: metastatic pancreatic ductal adenocarcinoma Su.86.86 cancer cells; experiment: viability / killing of Su.86.86 cells; type: cell-based; conditions: E266 versus E260; compound (I) as tartarate salt in 0.5% Tween-80; FIG. 4
Procedure: (§1) The compound (I), as tartarate salt was dissolved in 0.5% Tween-80 to affect the viability of several cell lines as follows.
(§2) The effect of the compound (I) (E266) on the growth profile of cancer cells which express Fer was tested. The cells that were tested were: the metastatic colon cancer cell line—SW620, the metastatic pancreatic ductal-adenocarcinoma SU.86.86 cancer cell-line—SU.86.86, the metastatic Triple Negative breast cancer cell line—MDA-MB-231, and the metastatic prostate cancer cell-line—PC3. The effect of the compound (I) (E266) on FS11 cells, a non malignant fibroblastic cell line, was also studied.

[2] = tested on: metastatic Triple negative MDA-MB-231 Breast cancer cells; experiment: viability / killing of MDA-MB-231 cells; type: cell-based; conditions: E266 versus E260; compound (I) as tartarate salt in 0.5% Tween-80; FIG. 5
Procedure: as §1, §2

## CC(C)c1ccc(-c2cn3nc(N4CCC(CN5CCN(CCO)CC5)CC4)sc3n2)cc1 [Compound E266, 2-(4-{1-[6-(4-isopropyl-phenyl)-imidazo[2,1-b][1,3,4]thiadiazol-2-yl]-piperidin-4-ylmethyl}-piperazin-1-yl)-ethanol]
[1]
  killing metastatic pancreatic ductal adenocarcinoma Su.86.86 cancer cells: comparable activity
[2]
  killing metastatic Triple negative MDA-MB-231 Breast cancer cells: comparable activity
